Source: ChEMBL document CHEMBL4340512, “Discovery of novel triazolo[4,3-b]pyridazin-3-yl-quinoline derivatives as PIM inhibitors” (Eur J Med Chem, 2019)

Tests used:
[1] = molecular target: T1, Serine/threonine-protein kinase pim-1 (Homo sapiens, UniProt P11309); test: Inhibition of His tagged human recombinant PIM1 using PIM tide (ARKRRRHPSGPPTA) as substrate incubated for 1 hr by fluorescence based assay
[2] = molecular target: T2, Receptor-type tyrosine-protein kinase FLT3 (Homo sapiens, UniProt P36888); test: Inhibition of human FLT3 using EAIYAAPFAKKK as substrate incubated for 60 mins by fluorescence based assay
T2 sequence (P36888 whole entry): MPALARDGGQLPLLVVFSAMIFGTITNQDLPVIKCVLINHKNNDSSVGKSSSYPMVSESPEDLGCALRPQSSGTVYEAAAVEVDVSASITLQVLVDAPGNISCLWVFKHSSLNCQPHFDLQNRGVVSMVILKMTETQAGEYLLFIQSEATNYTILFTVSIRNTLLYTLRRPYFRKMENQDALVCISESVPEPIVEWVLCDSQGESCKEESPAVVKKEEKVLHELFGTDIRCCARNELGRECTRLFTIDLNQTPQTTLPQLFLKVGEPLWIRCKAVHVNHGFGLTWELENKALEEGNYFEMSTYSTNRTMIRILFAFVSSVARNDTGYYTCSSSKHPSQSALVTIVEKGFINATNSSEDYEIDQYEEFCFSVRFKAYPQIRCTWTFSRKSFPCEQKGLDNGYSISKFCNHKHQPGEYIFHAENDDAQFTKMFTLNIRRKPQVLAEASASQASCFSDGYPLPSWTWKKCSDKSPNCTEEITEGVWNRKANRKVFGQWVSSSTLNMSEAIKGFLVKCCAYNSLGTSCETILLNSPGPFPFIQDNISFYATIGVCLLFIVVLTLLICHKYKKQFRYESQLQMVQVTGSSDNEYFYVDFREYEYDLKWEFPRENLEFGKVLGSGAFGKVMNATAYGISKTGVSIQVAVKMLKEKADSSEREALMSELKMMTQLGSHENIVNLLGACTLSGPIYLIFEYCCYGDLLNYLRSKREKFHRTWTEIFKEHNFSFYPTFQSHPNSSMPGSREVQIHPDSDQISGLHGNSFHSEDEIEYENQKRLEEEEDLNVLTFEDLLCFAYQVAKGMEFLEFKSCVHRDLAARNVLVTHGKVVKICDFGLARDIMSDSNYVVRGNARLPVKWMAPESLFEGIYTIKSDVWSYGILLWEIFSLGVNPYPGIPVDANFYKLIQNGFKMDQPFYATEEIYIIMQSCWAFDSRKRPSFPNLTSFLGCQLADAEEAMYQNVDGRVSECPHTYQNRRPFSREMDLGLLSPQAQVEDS

[3] = molecular target: T1, Serine/threonine-protein kinase pim-1; test: Inhibition of PIM1 in human NCI-H1299 cells assessed as reduction in BAD phosphorylation at Ser-112 residue incubated for 4 hrs by ELISA; type: cell-based
[4] = molecular target: Serine/threonine-protein kinase pim-3 (Homo sapiens, UniProt Q86V86); test: Inhibition of N-terminal 6-His tagged human recombinant PIM3 using PIM tide (ARKRRRHPSGPPTA) as substrate incubated for 1 hr by fluorescence based assay
[5] = molecular target: Serine/threonine-protein kinase pim-2 (Homo sapiens, UniProt Q9P1W9); test: Inhibition of His tagged human recombinant PIM2 using PIM tide (ARKRRRHPSGPPTA) as substrate incubated for 1 hr by fluorescence based assay
[6] = Clearance in iv dosed Balb/c mouse administered as single dose measured after 0.08 to 4 hrs by HPLC/MS analysis; type: ADME, organism-based; conditions: in vivo
[7] = Clearance in iv dosed Balb/c mouse administered as single dose measured after 0.08 to 4 hrs by HPLC/MS analysis relative to hepatic blood flow; type: ADME, organism-based; conditions: in vivo
[8] = molecular target: Voltage-gated inwardly rectifying potassium channel KCNH2 (Homo sapiens, UniProt Q12809)
MDA-MB-231 = test: Antiproliferative activity against human MDA-MB-231 cells incubated for 72 hrs by CellTiter-Glo luminescence assay; type: functional; conditions: MDA-MB-231, 72 h
PC-3 = test: Antiproliferative activity against human PC3 cells incubated for 72 hrs by CellTiter-Glo luminescence assay; type: functional; conditions: PC-3, 72 h
SK-MEL19 = test: Antiproliferative activity against human SK-MEL-19 cells incubated for 72 hrs by CellTiter-Glo luminescence assay; type: functional; conditions: SK-MEL19, 72 h
MV4-11 = test: Antiproliferative activity against human MV4-11 cells incubated for 72 hrs by CellTiter-Glo luminescence assay; type: functional; conditions: MV4-11, 72 h

Structure (SMILES)	IC50 [1] [nM]	EC50 ([3]; read-out: EC50) [nM]	IC50 [4] [nM]	IC50 [5] [nM]	other results
CN1CCOc2c1cnn1c(C(=O)Nc3ccccc3NC3CCNCC3)nnc21	> 10000				
CN1CCOc2c1cnn1c(-c3ccc4c(F)c(F)cc(NCC5(F)CCNCC5)c4n3)nnc21	18	155	12	3590	IC50 [2]: 6320 nM; clearance [6]: 3.83 mL/min/kg; CLH [7]: < 30%; IC50 [8]: > 20000 nM
CN1CCOc2c1cnn1c(-c3cccc(-c4cccc(NCC5CCNCC5)c4)n3)nnc21	785				
CN1CCC(CNc2cccc3ccc(-c4nnc5c6c(cnn45)N(C)CCO6)nc23)CC1	14	179	82	4250	IC50 [2]: > 10000 nM; IC50 [8]: > 20000 nM
c1ccc(OCCN2CCOc3c2cnn2c(-c4ccc5cccc(NCC6CCNCC6)c5n4)nnc32)cc1	17	2020	140	4690	
CN1CCOc2c1cnn1c(-c3ccc4cccc(NC5CCCCC5)c4c3)nnc21	46	265	1550	8040	IC50 [2]: > 10000 nM; IC50 [8]: 6060 nM
CN1CCOc2c1cnn1c(-c3ccc4cc(Cl)cc(NCC5(F)CCNCC5)c4n3)nnc21	30		1	1270	EC50 ([3]; nci-h1299): Not Active
O=C(NOC[C@H](O)CO)c1ccc(F)c(F)c1Nc1ccc(I)cc1F [MIRDAMETINIB]					GI50 (MDA-MB-231): 1000 nM
O=C(CCCCCCC(=O)Nc1ccccc1)NO [VORINOSTAT]					GI50 (PC-3): 5000 nM
CN1CCOc2c1cnn1c(-c3ccc4cccc(N5CCC(N)CC5)c4n3)nnc21	38	5310	80	2140	
CN1CCOc2c1cnn1c(-c3ccc4ccnc(NCC5CCNCC5)c4c3)nnc21	4	2510	6	27	
CN1CCOc2c1cnn1c(-c3ccc4c(F)ccc(NCC5(F)CCNCC5)c4n3)nnc21	30	283	14	3010	IC50 [2]: 3970 nM; clearance [6]: 9.33 mL/min/kg; CLH [7]: < 30%; IC50 [8]: > 20000 nM
CN1CCOc2c1cnn1c(-c3cccc(C(=O)NCC4CCNCC4)c3)nnc21	870				
CN1CCOc2c1cnn1c(-c3ccc4cccc(NC(=O)C5CCNCC5)c4n3)nnc21	36	330	131	3740	
CN1CCOc2c1cnn1c(-c3ccc4cccc(NC5CCC(C)(C)CC5)c4n3)nnc21	92		4080	> 10000	EC50 ([3]; nci-h1299): Not Active
CN1CCOc2c1cnn1c(-c3ccc4cccc(N5CCNCC5)c4n3)nnc21	200	5360	257	> 10000	
CC(C)N1CCOc2c1cnn1c(-c3ccc4cccc(NCC5CCNCC5)c4n3)nnc21	16	915	76	1650	
CN1CCOc2c1cnn1c(C(=O)Nc3ccccc3OCC3CCNCC3)nnc21	1100				
CN1CCOc2c1cnn1c(-c3cccc(-c4cccc(NC5CCNCC5)c4)n3)nnc21	425				
CN1CCOc2c1cnn1c(-c3ccnc(NC4CCNCC4)c3)nnc21	> 10000				
CN1CCOc2c1cnn1c(-c3ccc4cccc(NC5CCNCC5)c4n3)nnc21	12	1380	95	690	

Structure (SMILES)	IC50 [1] [nM]	EC50 ([3]; read-out: EC50) [nM]	IC50 [4] [nM]	IC50 [5] [nM]	other results
CN1CCOc2c1cnn1c(-c3ccc4ccc(Cl)c(NCC5(F)CCNCC5)c4n3)nnc21	12	71	6	696	IC50 [2]: > 10000 nM; IC50 [8]: 2100 nM
CN1CCOc2c1cnn1c(-c3cccc(NCC4CCNCC4)c3)nnc21	> 10000				
CN1CCOc2c1cnn1c(-c3ccc4cccc(NCC5(F)CCNCC5)c4n3)nnc21	21	215	55	5530	IC50 [2]: > 10000 nM
CN1CCOc2c1cnn1c(-c3ccc4ccnc(NCC5(F)CCNCC5)c4c3)nnc21	7	200	26	122	IC50 [2]: > 10000 nM; clearance [6]: 23.2 mL/min/kg; CLH [7]: < 30%; IC50 [8]: > 20000 nM
CN1CCOc2c1cnn1c(-c3ccc4cccc(NCC5CCNCC5)c4c3)nnc21	6	865	58	4870	
CN1CCOc2c1cnn1c(-c3ccc4ccnc(NC5CCCCC5)c4c3)nnc21	26	110	238	1100	IC50 [2]: > 10000 nM
CC(C)C[C@H](NC(=O)[C@H](Cc1ccccc1)NC(=O)c1cnccn1)B(O)O [BORTEZOMIB]					GI50 (PC-3): 40 nM
CN1CCOc2c1cnn1c(-c3ccc4cccc(NCC5CCOCC5)c4c3)nnc21	20		281	9940	
CN1CCOc2c1cnn1c(-c3cccc(C(=O)NCC4CCNCC4)n3)nnc21	7100				
CCCN1CCOc2c1cnn1c(-c3ccc4cccc(NCC5CCNCC5)c4n3)nnc21	12	800	60	4010	
CN1CCOc2c1cnn1c(C(=O)Nc3ccccc3NCC3CCNCC3)nnc21	> 10000				
CCN1CCOc2c1cnn1c(-c3ccc4cccc(NCC5CCNCC5)c4n3)nnc21	13	780	58	1930	
CN1CCOc2c1cnn1c(-c3ccc4cccc(NCC5CCNCC5)c4n3)nnc21	14	700	17	4260	
CN1CCOc2c1cnn1c(-c3ccc4cccc(NC5CCCCC5)c4n3)nnc21	32	220	300	3330	IC50 [2]: > 10000 nM; clearance [6]: 23.7 mL/min/kg; CLH [7]: < 30%; IC50 [8]: > 20000 nM
Cc1cc(NCC2(F)CCNCC2)c2nc(-c3nnc4c5c(cnn34)N(C)CCO5)ccc2c1	236	5960		> 10000	
CN1CCOc2c1cnn1c(-c3ccc4cccc(NC5CCOCC5)c4n3)nnc21	25	322	358	2470	
CC(=O)O[C@@]12CO[C@@H]1C[C@H](O)[C@@]1(C)C(=O)[C@H](O)C3=C(C)[C@@H](OC(=O)[C@H](O)[C@@H](NC(=O)OC(C)(C)C)c4ccccc4)C[C@@](O)([C@@H](OC(=O)c4ccccc4)[C@H]21)C3(C)C [DOCETAXEL ANHYDROUS]					GI50 (SK-MEL19): 2 nM; GI50 (MV4-11): 0.5 nM
CN1CCOc2c1cnn1c(-c3ccc4cccc(NCC5CCCCC5)c4n3)nnc21	420		> 10000	> 1000	
CN1CCC(Nc2cccc3ccc(-c4nnc5c6c(cnn45)N(C)CCO6)nc23)CC1	7	212	40	2870	IC50 [2]: > 10000 nM; IC50 [8]: > 20000 nM
CN1CCOc2c1cnn1c(-c3ccc4cc(F)cc(NCC5(F)CCNCC5)c4n3)nnc21	10	465	7	858	
CN1CCOc2c1cnn1c(-c3ccc4cccc(NCC5CCOCC5)c4n3)nnc21	30	325	402	6210	
